Results as given in patent US6262095A, “Use of tricyclic derivatives of 1,4-dihydro-1,4-dioxo-1H-naphthalene, novel compounds obtained and their application in theraphy” (Laboratoire Innothera, priority 1995, dated 2001).

Key:
[1] = test system: hyperpermeability induced by zymosan in rats; assay: Inflammatory hyperpermeability induced by zymosan in rats; type: in vivo, rat (Wistar); settings: rat, oral
Experimental: The vascular permeability is studied in vivo by measuring the extravasation of albumin, the quantity of which is determined using an albumin-binding dye (Evans blue).
The hyperpermeability is induced by the intradermal injection of a solution of histamine, bradykinin, or zymosan.
The abdominal walls of the rats (Wistar, 200-230 g) are shorn 1 h before the start of the experiment. The product to be tested is injected by the intraperitoneal route or orally 1-4 h before the sacrifice. The rats are anesthetized with a halothane mixture. They then receive an intradermal injection in their abdomen of 0.10 or 0.15 mL (or for histamine 6.7 or […]) of inflammatory agent and an intravenous injection of 1 mL of 0.5% Evans blue solution in the vein of the penis. These injections are carried out 30 min before the sacrificing.
30 min after these two injections, the rats are sacrificed by cervical dislocation.
At the site of the injection of the inflammatory agent, the skin is cut and placed into glass tubes with a ground[-glass] neck containing 3 mL of fuming hydrochloric acid. […] After allowing the preparation to stand for 30 min, 7 mL of dichloromethane are added. The tubes are periodically agitated for 1 h. The aqueous phase is eliminated by aspiration, and the organic "dichloromethane" phase is filtered. The optical densities are quantified by absorption spectrophotometry at a wavelength of 620 nm, against a blank [control] containing only dichloromethane. The averages of the optical densities of the different lots of treated or control animals are calculated, then a percentage of variation of the values corresponding to the treated [experimental] animals compared to those of the control animals is calculated.

[2] = test system: fibroblastic cell lines of mice (L929); assay: Cytotoxicity on L929 fibroblastic cell lines (neutral red incorporation); type: cell-based, mouse; settings: L929, up to concentrations equal to their solubility in an aqueous medium
Text: (§1) Moreover, the compounds of the invention and their possible salts have a very low toxicity.

mice = assay: Single oral administration toxicity in mice; type: in vivo, mouse
Text: as §1

[3] = test system: saphenous vein in rabbits; assay: Contractile effect on the rabbit saphenous vein precontracted by a depolarizing physiological solution (K+ 40 mM); type: cell-based; settings: Oryctolagus cuniculus, precontracted with 40 mM potassium; for Emax: % of maximum contraction induced by hyperpotassic solutions; for EC50: read-out: ED50 (the source's name)
Experimental: The contractile effects are measured in vitro under static conditions on vascular capacitance or resistance rings of saphenous, femoral, jugular, mesenteric, and caval veins . . . and on femoral, carotid, basilar, or mesenteric arteries, as well as the thoracic or abdominal aorta . . . in rats (Wistar, 200-250 g), rabbits (New Zealand, 2-2.5 kg), guinea pigs (Dunkin Hartley 250-300 g).
The rings are placed in a chamber for isolated organs (25 mL for capacitance vessels and 2.5 mL for resistance vessels according to Mulvany), and maintained under isometric conditions using two rigid threads inserted inside the vessel, avoiding causing damage to the endothelium. The vessels are bathed in a modified Krebs solution (in mM: NaCl=118; KCl=4.6; CaCl2 =2.5; MgSO4 =1.2; KH2 PO4 =1.17; NaHCO3 =25; glucose=11), continuously aerated using a gaseous mixture of 95% O2 and 5% Co2, at a pH=7.4, and regulated by thermostat at 37° C. The rings are adjusted to their optimal point as far as the tension-length relationship is concerned. The tensions developed generate an electrical signal through the intermediary of a force sensor (Wheatstone bridge). […] The pharmacological studies are carried out after a few standardized preliminary contractile stimulations using a depolarizing solution (hyperpotassic type obtained by replacing NaCl with KCl in equimolar quantities), along with rinsings and periods of equilibration in a pure physiological solution. The presence of endothelium is verified by the relaxation induced by increasing the concentration of acetylcholine after the stabilization of a vascular precontraction.
The forces of contraction developed by the vascular rings in response to the different compounds are studied on quiescent or electrically stimulated vessels (5-8 Hz), by a "physiological" depolarizing hyperpotassic solution (KCl: 20, 40 mM), by noradrenaline (increasing concentrations), [and by] serotonin (increasing concentrations).
The contractions are expressed in mg force or as a percentage of the maximum contraction at the time of the depolarization with a "physiological" hyperpotassic solution.
The contractile effect of different compounds on the saphenous vein in rabbits, precontracted by a depolarizing "physiological" solution with a potassium concentration of 40 mM, is given as an illustration; the maximum effect produced by each compound is expressed as a percentage of the maximum contraction induced by depolarizing hyperpotassic solutions and as value of ED50): […]

[4] = test system: capillary resistance of rats; assay: Capillary resistance of rats after oral administration (petechial index); type: in vivo, rat (Wistar); settings: rat
Experimental: The increase in the capillary resistance is evaluated by the modification of the petechial index (negative pressure inducing the extravasation of the erythrocytes), measured by a method derived from the angiosterrometer of Parrot.
The studies are carried out on male Wistar rats with an average weight of 200 g (approximate age six weeks). The bottom area of the back is shorn, then the hair is pulled by means of a paste based on a derivative of thioglycolic acid and calcium hydroxide. After approximately 30 min, the skin is abundantly rinsed and dried.
On the day of the study, the rats are maintained without constraint. A low pressure of 80 mm of mercury is applied. If the petechiae (extravasation of erythrocytes) have not appeared within 15 sec, the low pressure is increased as a countermeasure, keeping the suction cap at the same place.
The minimum low pressure where petechias appear, in mm of mercury, expresses the basal capillary resistance (before any treatment). Two measurements are made for each test at different sites on of the back.
The rats are treated by the oral route. […] All the measurements are done in the blind mode.
A percentage of variation in the capillary resistances of the animals treated compared to their basal capillary resistance is calculated for each compound studied, at each treatment time and compared with the control group (excipient only) or the reference group.

[5] = single oral administration of 500 mg/kg
[6] = single oral administration, 1 g/kg

Compound	Zymosan-induced hyperpermeability, effect after 2 h ([1]; 0.1 mg/kg)	Zymosan-induced hyperpermeability, effect after 4 h ([1]; 0.1 mg/kg)	cytotoxicity (viability by neutral red incorporation) [2]	toxic effect and mortality (mice; [5])	Emax [3] [%]	EC50 [3] [nM]	toxic effect and mortality (mice; [6])	other results
O=C1c2ccccc2C(=O)c2oc(-c3ccccc3F)nc21 [Example 3, 4,9-Dihydro-4,9-dioxo-2-(2-fluorophenyl)-naphtho[2,3-d]oxazole]	-22 % of the control	-26 % of the control	noncytotoxic	no observable toxic effect and no mortality	17 ± 6	36		observed signs (mice; [5]): slight diarrheas; Increase of capillary resistance, effects after 4 h ([4]; 5 mg/kg): 27 % of the control; Increase of capillary resistance, effect after 6 h ([4]; 5 mg/kg): 18 % of the control
O=C1c2ccccc2C(=O)c2oc(-c3cccc(F)c3)nc21 [Example 4, 4,9-Dihydro-4,9-dioxo-2-(3-fluorophenyl)-naphtho[2,3-d]oxazole]			noncytotoxic		29 ± 11	42		
Cc1ccccc1-c1nc2c(o1)C(=O)c1ccccc1C2=O [Example 6, 4,9-Dihydro-4,9-dioxo-2-(2-methylphenyl)-naphtho[2,3-d]oxazole]				no observable toxic effect and no mortality				
O=C1c2ccccc2C(=O)c2sc(-c3cccc(F)c3)nc21 [Example 13, 4,9-Dihydro-4,9-dioxo-2-(3-fluorophenyl)-naphtho[2,3-d]thiazole]					21 ± 3	57	no observable toxic effect and no mortality	
O=C1c2ccccc2C(=O)c2sc(-c3cccs3)nc21 [Example 20, 4,9-Dihydro-4,9-dioxo-2-(2-thienyl)-naphtho[2,3-d]thiazole]			noncytotoxic		24 ± 4	110		
O=C1c2ccccc2C(=O)c2sc(-c3ccsc3)nc21 [Example 21, 4,9-Dihydro-4,9-dioxo-2-(3-thienyl)-naphtho[2,3-d]thiazole]			noncytotoxic					Zymosan-induced hyperpermeability, effect after 2 h ([1]; 5 mg/kg): -22 % of the control; Zymosan-induced hyperpermeability, effect after 4 h ([1]; 5 mg/kg): -21 % of the control; Increase of capillary resistance, effects after 4 h ([4]; 5 mg/kg): 10 % of the control; Increase of capillary resistance, effect after 6 h ([4]; 5 mg/kg): 22 % of the control
O=C1c2ccccc2C(=O)c2oc(-c3ccccc3)nc21 [Example f, 4,9-Dihydro-4,9-dioxo-2-phenylnaphtho[2,3-d]oxazole]	-15 % of the control	-22 % of the control	noncytotoxic		15 ± 1	21	no observable toxic effect and no mortality	Increase of capillary resistance, effects after 4 h ([4]; 0.1 mg/kg): 7 % of the control; Increase of capillary resistance, effect after 6 h ([4]; 0.1 mg/kg): 17 % of the control
Cc1nc2c(s1)C(=O)c1ccccc1C2=O [Example h, 4,9-Dihydro-4,9-dioxo-2-methylnaphtho[2,3-d]thiazole]					29 ± 6	86	no observable toxic effect and no mortality	observed signs (mice; [6]): diarrheas; Increase of capillary resistance, effects after 4 h ([4]; 0.1 mg/kg): 19 % of the control; Increase of capillary resistance, effect after 6 h ([4]; 0.1 mg/kg): 19 % of the control
O=C1c2ccccc2C(=O)c2sc(-c3ccccc3)nc21 [Example j, 4,9-Dihydro-4,9-dioxo-2-phenylnaphtho[2,3-d]thiazole]	-14 % of the control	-32 % of the control	noncytotoxic	no observable toxic effect and no mortality	16 ± 6	30		
